Test results as given in patent publication US20260062376A1, “SQUARAMIDE DERIVATIVES AS CB1 ALLOSTERIC MODULATORS” (RESEARCH TRIANGLE INSTITUTE, priority 2022, published 2026).

What follows are molecules tested against T1, Human CB1 (Homo sapiens (Human), UniProt P21554) (assay: Calcium mobilization assay (antagonist mode vs CP55,940)). Settings: CHO-RD-HGA16 cells stably expressing human CB1; against EC50 concentration of CP55,940; mean ± SEM, at least three experiments.
Type: cell-based
Method: Calcium Mobilization Assay: CHO-RD-HGA16 cells (Molecular Devices, San Jose, California, United States of America) stably expressing the human CB1 receptor were plated into 96-well black-walled assay plates at 25,000 cells/well in 100 μL of Ham's F12 (supplemented with 10% fetal bovine serum, 100 units of penicillin/streptomycin, and 100 μg/mL Normocin) and incubated overnight at 37° C., 5% CO2. Calcium 5 dye (Molecular Devices, San Jose, California, United States of America) was reconstituted according to the manufacturer's instructions. The reconstituted dye was diluted 1:40 in prewarmed (37° C.) assay buffer (lx HBSS, 20 mM HEPES, 2.5 mM probenecid, pH 7.4 at 37° C.). Growth medium was removed, and the cells were gently washed with 100 μL of prewarmed (37° C.) assay buffer. […] After the pretreatment incubation period, the plate was read with a FLIPR Tetra (Molecular Devices, San Jose, California, United States of America). […] Relative fluorescence units (RFU) were plotted against the log of compound concentrations. […] Test compound RFUs were compared to the CP55,940 Emax RFUs to generate % Emax values. For the CB2 agonist and antagonist assays, the same procedures were followed except that stable human CB2—CHO-RD-HGA16 cells were used.
(§1) Data Analysis: For calcium mobilization experiments, data were fit to a three-parameter logistic curve to generate IC50 values (GraphPad Prism 6.0, Graphpad Software, San Diego, California, United States of America). For [^35S]GTPγS experiments, data were normalized to maximal CP55,940 (100 nM) stimulation in the absence of test compound (i.e., vehicle=100%).

T1 sequence (P21554 whole entry): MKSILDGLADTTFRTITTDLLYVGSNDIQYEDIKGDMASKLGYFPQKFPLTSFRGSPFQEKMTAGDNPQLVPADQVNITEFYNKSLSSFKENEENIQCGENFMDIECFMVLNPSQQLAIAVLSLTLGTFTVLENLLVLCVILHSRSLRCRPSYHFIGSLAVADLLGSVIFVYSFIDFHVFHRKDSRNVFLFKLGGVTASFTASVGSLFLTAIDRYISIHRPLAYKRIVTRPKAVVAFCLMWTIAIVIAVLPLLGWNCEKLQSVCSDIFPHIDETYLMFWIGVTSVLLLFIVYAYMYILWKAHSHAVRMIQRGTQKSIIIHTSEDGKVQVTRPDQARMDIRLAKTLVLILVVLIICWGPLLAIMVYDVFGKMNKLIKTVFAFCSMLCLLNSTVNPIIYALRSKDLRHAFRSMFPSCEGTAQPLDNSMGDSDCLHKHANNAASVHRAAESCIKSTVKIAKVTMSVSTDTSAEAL

IC50 [µM]	SMILES
0.21 ± 0.039	O=c1c(NCCc2ccccc2)c(Nc2ccc(Cl)cc2)c1=O [Compound 11, 3-[(4-Chlorophenyl)amino]-4-[(2-phenylethyl)amino]cyclobut-3-ene-1,2-dione]
1.04 ± 0.359	O=c1c(NCCCc2ccccc2)c(Nc2ccc(Cl)cc2)c1=O [Compound 12, 3-[(4-Chlorophenyl)amino]-4-[(3-phenylpropyl)amino]cyclobut-3-ene-1,2-dione]
2.07 ± 0.204	O=c1c(NCCc2cccc(O)c2)c(Nc2ccc(Cl)cc2)c1=O [Compound 43, 3-[(4-Chlorophenyl)amino]-4-{[2-(3-hydroxyphenyl)ethyl]amino}cyclobut-3-ene-1,2-dione]
0.333 ± 0.007	O=c1c(NCCc2ccc(Br)cc2)c(Nc2ccc(Cl)cc2)c1=O [Compound 38, 3-[(4-Chlorophenyl)amino]-4-{[2-(4-bromophenyl)ethyl]amino}cyclobut-3-ene-1,2-dione]
0.35 ± 0.039	COc1cccc(CCNc2c(Nc3ccc(Cl)cc3)c(=O)c2=O)c1 [Compound 17, 3-[(4-Chlorophenyl)amino]-4-{[2-(3-methoxyphenyl)ethyl]amino}cyclobut-3-ene-1,2-dione]
0.154 ± 0.014	O=c1c(Nc2ccc(Cl)cc2)c(Nc2cccc(-c3cscn3)c2)c1=O [Compound 31, 3-[(4-Chlorophenyl)amino]-4-{[3-(1,3-thiazol-4-yl)phenyl]amino}cyclobut-3-ene-1,2-dione]
1.29 ± 0.201	O=c1c(NCCc2ccccc2Cl)c(Nc2ccc(Cl)cc2)c1=O [Compound 23, 3-[(4-Chlorophenyl)amino]-4-{[2-(2-chlorophenyl)ethyl]amino}cyclobut-3-ene-1,2-dione]
1.48 ± 0.297	O=c1c(Nc2ccc(Cl)cc2)c(Nc2ccc(-c3ccccc3)cc2)c1=O [Compound 34, 3-(Biphenyl-4-ylamino)-4-[(4-chlorophenyl)amino]cyclobut-3-ene-1,2-dione]
0.399 ± 0.022	O=c1c(NCCc2cccs2)c(Nc2ccc(Cl)cc2)c1=O [Compound 39, 3-[(4-Chlorophenyl)amino]-4-{[2-(thiophen-2-yl)ethyl]amino}cyclobut-3-ene-1,2-dione]
0.408 ± 0.094	O=c1c(Nc2ccc(Cl)cc2)c(Nc2cccc(-c3ccccc3)c2)c1=O [Compound 29, 3-(Biphenyl-3-ylamino)-4-[(4-chlorophenyl)amino]cyclobut-3-ene-1,2-dione]
0.286 ± 0.028	O=c1c(NCCc2cccc(F)c2)c(Nc2ccc(Cl)cc2)c1=O [Compound 25, 3-[(4-Chlorophenyl)amino]-4-{[2-(3-fluorophenyl)ethyl]amino}cyclobut-3-ene-1,2-dione]
0.408 ± 0.066	Cc1ccc(CCNc2c(Nc3ccc(Cl)cc3)c(=O)c2=O)cc1C [Compound 42, 3-[(4-Chlorophenyl)amino]-4-{[2-(3,4-dimethylphenyl)ethyl]amino}cyclobut-3-ene-1,2-dione]
0.463 ± 0.056	O=c1c(Nc2ccc(Cl)cc2)c(Nc2cccc(-c3ccsc3)c2)c1=O [Compound 32, 3-[(4-Chlorophenyl)amino]-4-{[3-(thiophen-3-yl)phenyl]amino}cyclobut-3-ene-1,2-dione]
0.36 ± 0.065	O=c1c(NCCc2cccc(C(F)(F)F)c2)c(Nc2ccc(Cl)cc2)c1=O [Compound 20, 3-[(4-Chlorophenyl)amino]-4-({2-[3-(trifluoromethyl)phenyl]ethyl}amino)cyclobut-3-ene-1,2-dione]
0.205 ± 0.041	Cc1cccc(CCNc2c(Nc3ccc(Cl)cc3)c(=O)c2=O)c1 [Compound 14, 3-[(4-Chlorophenyl)amino]-4-{[2-(3-methylphenyl)ethyl]amino}cyclobut-3-ene-1,2-dione]
0.337 ± 0.021	O=c1c(NCCc2ccc(F)cc2)c(Nc2ccc(Cl)cc2)c1=O [Compound 22, 3-[(4-Chlorophenyl)amino]-4-{[2-(4-fluorophenyl)ethyl]amino}cyclobut-3-ene-1,2-dione]
0.164 ± 0.03	Cc1ccc(CCNc2c(Nc3ccc(Cl)cc3)c(=O)c2=O)cc1 [Compound 15, 3-[(4-Chlorophenyl)amino]-4-{[2-(4-methylphenyl)ethyl]amino}cyclobut-3-ene-1,2-dione]
2.1 ± 0.272	CN(C)c1cccc(CCNc2c(Nc3ccc(Cl)cc3)c(=O)c2=O)c1 [Compound 26, 3-[(4-Chlorophenyl)amino]-4-({2-[3-(dimethylamino)phenyl]ethyl}amino)cyclobut-3-ene-1,2-dione]
0.222 ± 0.035	O=c1c(NCCc2ccc(Cl)cc2)c(Nc2ccc(Cl)cc2)c1=O [Compound 13, 3-[(4-Chlorophenyl)amino]-4-{[2-(4-chlorophenyl)ethyl]amino}cyclobut-3-ene-1,2-dione]
0.274 ± 0.033	O=c1c(NCCc2ccccc2F)c(Nc2ccc(Cl)cc2)c1=O [Compound 24, 3-[(4-Chlorophenyl)amino]-4-{[2-(2-fluorophenyl)ethyl]amino}cyclobut-3-ene-1,2-dione]

More lines, now with the values behind:

SMILES	IC50 [µM]
N#Cc1ccc(Nc2c(NCCc3cccc(Cl)c3)c(=O)c2=O)cc1 [Compound 28, 4-[(2-{[2-(3-Chlorophenyl)ethyl]amino}-3,4-dioxocyclobut-1-en-1-yl)amino]benzonitrile]	0.46 ± 0.066
O=c1c(NCCc2ccccc2C(F)(F)F)c(Nc2ccc(Cl)cc2)c1=O [Compound 19, 3-[(4-Chlorophenyl)amino]-4-({2-[2-(trifluoromethyl)phenyl]ethyl}amino)cyclobut-3-ene-1,2-dione]	0.933
O=c1c(NCCc2ccc(Cl)cc2Cl)c(Nc2ccc(Cl)cc2)c1=O [Compound 44, 3-[(4-Chlorophenyl)amino]-4-{[2-(2,4-dichlorophenyl)ethyl]amino}cyclobut-3-ene-1,2-dione]	1.14 ± 0.183
O=c1c(NCCc2ccc(C(F)(F)F)cc2)c(Nc2ccc(Cl)cc2)c1=O [Compound 21, 3-[(4-Chlorophenyl)amino]-4-({2-[4-(trifluoromethyl)phenyl]ethyl}amino)cyclobut-3-ene-1,2-dione]	0.275 ± 0.013
O=c1c(NCCN2CCCCC2)c(Nc2ccc(Cl)cc2)c1=O [Compound 45, 3-[(4-Chlorophenyl)amino]-4-{[2-(piperidin-1-yl)ethyl]amino}cyclobut-3-ene-1,2-dione]	> 10
O=c1c(NCCc2ccc(N3CCCCC3)cc2)c(Nc2ccc(Cl)cc2)c1=O [Compound 49, 3-[(4-Chlorophenyl)amino]-4-{[2-(4-piperidin-1-ylphenyl)ethyl]amino}cyclobut-3-ene-1,2-dione]	> 10
CCN(CC)c1ccc(CCNc2c(Nc3ccc(Cl)cc3)c(=O)c2=O)cc1 [Compound 48, 3-[(4-Chlorophenyl)amino]-4-({2-[4-(diethylamino)phenyl]ethyl}amino)cyclobut-3-ene-1,2-dione]	0.639 ± 0.247
O=c1c(NCCc2ccc(N3CCC3)cc2)c(Nc2ccc(Cl)cc2)c1=O [Compound 51, 3-{[2-(4-Azetidin-1-ylphenyl)ethyl]amino}-4-[(4-chlorophenyl)amino]cyclobut-3-ene-1,2-dione]	> 10
O=c1c(NCCc2ccc(Cl)c(Cl)c2)c(Nc2ccc(Cl)cc2)c1=O [Compound 41, 3-[(4-Chlorophenyl)amino]-4-{[2-(3,4-dichlorophenyl)ethyl]amino}cyclobut-3-ene-1,2-dione]	0.877 ± 0.031
O=c1c(NCCc2ccc(N3CCCC3)cc2)c(Nc2ccc(Cl)cc2)c1=O [Compound 50, 3-[(4-Chlorophenyl)amino]-4-{[2-(4-pyrrolidin-1-ylphenyl)ethyl]amino}cyclobut-3-ene-1,2-dione]	> 10
CN(C)c1ccc(CCNc2c(Nc3ccc(Cl)cc3)c(=O)c2=O)cc1 [Compound 27, 3-[(4-Chlorophenyl)amino]-4-({2-[4-(dimethylamino)phenyl]ethyl}amino)cyclobut-3-ene-1,2-dione]	0.535 ± 0.135
O=c1c(NCCc2ccncc2)c(Nc2ccc(Cl)cc2)c1=O [Compound 37, 3-[(4-Chlorophenyl)amino]-4-{[2-(pyridin-4-yl)ethyl]amino}cyclobut-3-ene-1,2-dione]	> 10
Cc1ccccc1CCNc1c(Nc2ccc(Cl)cc2)c(=O)c1=O [Compound 35, 3-[(4-Chlorophenyl)amino]-4-{[2-(2-methylphenyl)ethyl]amino}cyclobut-3-ene-1,2-dione]	0.353 ± 0.037
O=c1c(NCCc2ccccn2)c(Nc2ccc(Cl)cc2)c1=O [Compound 36, 3-[(4-Chlorophenyl)amino]-4-{[2-(pyridin-2-yl)ethyl]amino}cyclobut-3-ene-1,2-dione]	0.958 ± 0.06
COc1ccc(CCNc2c(Nc3ccc(Cl)cc3)c(=O)c2=O)cc1 [Compound 18, 3-[(4-Chlorophenyl)amino]-4-{[2-(4-methoxyphenyl)ethyl]amino}cyclobut-3-ene-1,2-dione]	0.734 ± 0.31
COc1ccccc1CCNc1c(Nc2ccc(Cl)cc2)c(=O)c1=O [Compound 16, 3-[(4-Chlorophenyl)amino]-4-{[2-(2-methoxyphenyl)ethyl]amino}cyclobut-3-ene-1,2-dione]	1.11 ± 0.088

The molecules below were run against T1, Human CB1 (assay: Human CB1 HEK293 membrane [35S]GTPγS binding assay). Settings: HEK293 membranes expressing human CB1; in presence of CP55,940; mean ± SEM; read-out: Human CB1 HEK293 membrane [35S]GTPγS binding assay pIC50 ± SEM (converted).
Type: biochemical
Method: Non-specific binding was determined by adding 30 μM unlabeled GTPγS.
as §1

IC50 [µM]	SMILES
0.776	O=c1c(NCCc2ccccc2)c(Nc2ccc(Cl)cc2)c1=O [Compound 11, 3-[(4-Chlorophenyl)amino]-4-[(2-phenylethyl)amino]cyclobut-3-ene-1,2-dione]
0.398	N#Cc1ccc(Nc2c(NCCc3cccc(Cl)c3)c(=O)c2=O)cc1 [Compound 28, 4-[(2-{[2-(3-Chlorophenyl)ethyl]amino}-3,4-dioxocyclobut-1-en-1-yl)amino]benzonitrile]
